According to US9637451B2, “Indole compound” (ASTELLAS PHARMA INC., priority 2014, dated 2017):

Experiments:
[1] = Brain-to-plasma concentration ratio in rat after intravenous administration; assay type: in vivo; details: brain and plasma, 15 minutes after intravenous administration
Protocol: At 15 minutes after intravenously administration of the test compound to the rats, the plasma and brain were collected. A 50% acetonitrile solution and an acetonitrile including internal standard material were added to the collected plasma. The collected brain was added to a 2-fold volume of PBS and homogenized. A 50% acetonitrile solution and an acetonitrile including internal standard material were added to the brain homogenate. The sample was centrifuged at 4° C. and 2150×g for 10 minutes, the supernatant was measured by LC-MS/MS, and the total concentration of the test compound in the brain (Cbrain) and the total concentration of the test compound in the plasma (Cplasma,t) were obtained. The brain-to-plasma concentrations ratio (Kp,brain) was calculated by the following equation.
(§1) The Kp,uu,CSF values and the Kp,brain values of ramelteon and some Example compounds of the present invention are shown in Table 4. Ex represents Example No. of the test compound. Unless otherwise specified, the Kp,uu,CSF was calculated using the fp values determined by an ultracentrifugation method. Further, N.T. represents Not Tested.

human MT2 receptor = target: T1, human MT2 receptor (Homo sapiens, UniProt P49286); assay: Activation of human MT2 receptor in receptor-expressing cells, intracellular Ca2+ by FLIPR; assay type: cell-based; details: for EC50: HEK293 cells stably expressing human MT2 and Gq/i chimeric G protein, Ca2+ FLIPR; for Emax: maximum reaction by ramelteon taken as 100%
T1 construct: expressed in transfected cells
T1 sequence (P49286 1-362): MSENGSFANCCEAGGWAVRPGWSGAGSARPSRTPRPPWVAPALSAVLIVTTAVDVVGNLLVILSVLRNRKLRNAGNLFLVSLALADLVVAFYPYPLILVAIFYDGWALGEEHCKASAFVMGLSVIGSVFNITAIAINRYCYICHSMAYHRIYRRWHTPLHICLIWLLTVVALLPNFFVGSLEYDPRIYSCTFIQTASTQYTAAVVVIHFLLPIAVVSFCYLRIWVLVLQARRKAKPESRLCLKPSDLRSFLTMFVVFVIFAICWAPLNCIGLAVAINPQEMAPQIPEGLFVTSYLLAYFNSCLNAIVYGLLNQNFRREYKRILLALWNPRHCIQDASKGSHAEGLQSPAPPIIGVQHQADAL

human MT1 receptor = target: T2, human MT1 receptor (Homo sapiens, UniProt P48039); assay: Activation of human MT1 receptor in receptor-expressing cells, intracellular Ca2+ by FLIPR; assay type: cell-based; details: for EC50: HEK293EBNA1 cells stably expressing human MT1 and Gq/i chimeric G protein, Ca2+ FLIPR; for Emax: maximum reaction by ramelteon taken as 100%
T2 construct: expressed in transfected cells

[2] = CSF-to-plasma unbound concentration ratio in rat after intravenous administration; assay type: in vivo; details: CSF and plasma (unbound), iv, 15 minutes after intravenous administration
Protocol: A test compound (100 μg/mL, 50% acetonitrile solution) at 1% (v/v) with respect to the amount of the plasma was added to rat plasma, and dispensed to a sample for a supernatant and a sample for the plasma. The sample for a supernatant was ultracentrifuged at 436,000×g and 37° C. for 140 minutes, and the sample for the plasma was incubated at 37° C. for 140 minutes.
After 140 minutes, the sample for a supernatant after the ultracentrifugation and the sample for the plasma were taken, and mixed with the blank plasma or the blank supernatant, respectively. Acetonitrile including an internal standard material was added to each of the samples with the removal of protein, and after the centrifugation at 2150×g and 4° C. for 10 minutes the supernatant was injected into LC-MS/MS.
The unbound fraction in the plasma was calculated by the following equation.
To the plasma of a rat was added a test compound (0.2 mM, 50% acetonitrile solution) in an amount corresponding to 1% (v/v) of the plasma amount, and 200 μL of obtained plasma sample was filled into a plasma chamber of a RED device insert. A buffer chamber was filled with 350 μL of PBS, followed by performing equilibrium dialysis by stirring in a CO2 incubator at 37° C. for 16 hours. The sample after the completion of the equilibrium dialysis was recovered and the volume of the plasma sample was measured. To the plasma sample after the completion of the equilibrium dialysis were added PBS, a 20 mM ammonium formate buffer, and acetonitrile including an internal standard material. Similarly, to the PBS sample after the completion of the equilibrium dialysis was added a blank plasma, a 20 mM ammonium formate buffer, and acetonitrile including an internal standard material. This sample was left to stand at 4° C. for 30 minutes and then centrifuged 1500×g for 10 minutes, and the supernatant was measured by LC-MS/MS. The unbound fraction in the plasma was calculated by the following equation. fp=Cf/{(Cp−Cf)(V/V0)+Cf}
At 15 minutes after intravenously administration of the test compound to the rats, the plasma and CSF were collected. A 50% acetonitrile solution and an acetonitrile including internal standard material were added to the collected plasma or CSF. After centrifuging this sample at 4° C. and 2150×g for 10 minutes, the supernatant was measured by LC-MS/MS, and the total concentration of the test compound in the plasma (Cplasma,t) and the concentration of the test compound in CSF (CCSF) were obtained. The unbound concentration in the plasma (Cplasma,u) of the test compound and the CSF-to-plasma unbound concentration ratio (Kp,uu,CSF) of the test compound was calculated by the following equation.
as §1
(Ramelteon represents the values of Kp,uu,CSF after 10 minutes after the intravenous administration. Further, the Kp,uu,CSF of Examples 37 and 38 was calculated using the fp values determined by an equilibrium dialysis method. In addition, N.D. denotes the concentration of the test compound in CSF that is no higher than the detection limit.)

[3] = tested on: isolated urethra in a rat; details: Patent Document 5; cited from earlier work
[4] = fp by ultracentrifugation method
[5] = fp by equilibrium dialysis method

T2 sequence (P48039 whole entry): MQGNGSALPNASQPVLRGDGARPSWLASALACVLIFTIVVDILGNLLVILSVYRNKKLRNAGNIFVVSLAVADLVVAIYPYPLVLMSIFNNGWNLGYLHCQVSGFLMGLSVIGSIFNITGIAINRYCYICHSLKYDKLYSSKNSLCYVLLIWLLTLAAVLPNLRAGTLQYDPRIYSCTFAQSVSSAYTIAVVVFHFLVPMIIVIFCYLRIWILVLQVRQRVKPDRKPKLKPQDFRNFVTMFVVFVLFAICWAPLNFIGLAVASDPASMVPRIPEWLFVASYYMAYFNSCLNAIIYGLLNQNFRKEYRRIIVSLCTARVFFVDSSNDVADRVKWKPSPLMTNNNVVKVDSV

Row | Structure (SMILES) | Kp at 0.25 h [1] | EC50 (human MT2 receptor) | Emax (human MT2 receptor) | EC50 (human MT1 receptor) | Emax (human MT1 receptor) | Kp uu at 0.25 h [2, 4] | Kp uu at 0.25 h [2, 5] | contraction of isolated urethra, increase of urethral pressure [3]
1 | CNC(=O)NCCc1c(C)[nH]c2ccc(OCCOc3ccnc(C)c3)cc12 [Example 9, 1-methyl-3-[2-(2-methyl-5-{2-[(2-methylpyridin-4-yl)oxy]ethoxy}-1H-indol-3-yl)ethyl]urea] | 0.01 | 32 nM | 116% | 9.9 nM | 84% | – | – | –
2 | CNC(=O)NCCc1c(C)[nH]c2ccc(OCCOc3ccn(C)n3)cc12 [Example 10, 1-methyl-3-[2-(2-methyl-5-{2-[(1-methyl-1H-pyrazol-3-yl)oxy]ethoxy}-1H-indol-3-yl)ethyl]urea] | 0.02 | 21 nM | 117% | 8.3 nM | 95% | 0.07 | – | –
3 | CC(=O)NCCc1c(C)[nH]c2cc(F)c(OCCOc3ccn(C)n3)cc12 [Example 13, N-[2-(6-fluoro-2-methyl-5-{2-[(1-methyl-1H-pyrazol-3-yl)oxy]ethoxy}-1H-indol-3-yl)ethyl]acetamide] | – | 7 nM | 110% | 4.3 nM | 105% | 0.03 | – | –
4 | CC(=O)NCCc1c(C)[nH]c2ccc(OCCOc3ccnc(C)c3)cc12 [Example 18, N-[2-(2-methyl-5-{2-[(2-methylpyridin-4-yl)oxy]ethoxy}-1H-indol-3-yl)ethyl]acetamide] | 0.03 | 21 nM | 123% | 7.7 nM | 89% | 0.11 | – | –
5 | CNC(=O)NCCc1c[nH]c2ccc(OCCOc3ccc(OC)nc3)cc12 [Example 23, 1-[2-(5-{2-[(6-methoxypyridin-3-yl)oxy]ethoxy}-1H-indol-3-yl)ethyl]-3-methylurea] | 0.03 | 54 nM | 68% | 21 nM | 87% | 0.04 | – | –
6 | CNC(=O)NCCc1c(C)[nH]c2ccc(OCCOc3ccc(OC)nc3)cc12 [Example 31, 1-[2-(5-{2-[(6-methoxypyridin-3-yl)oxy]ethoxy}-2-methyl-1H-indol-3-yl)ethyl]-3-methylurea] | – | 28 nM | 88% | 1.4 nM | 104% | 0.01 | – | –
7 | CC(=O)NC[C@H](C)c1c[nH]c2cc(F)c(OCCOc3ccn(C)n3)cc12 [Example 37, N-[(2R)-2-(6-fluoro-5-{2-[(1-methyl-1H-pyrazol-3-yl)oxy]ethoxy}-1H-indol-3-yl)propyl]acetamide] | 0.01 | 7.1 nM | 104% | 2.1 nM | 105% | – | 0.08 | –
8 | CC(=O)NC[C@H](C)c1c[nH]c2cc(Cl)c(OCCOc3ccn(C)n3)cc12 [Example 38, N-[(2R)-2-(6-chloro-5-{2-[(1-methyl-1H-pyrazol-3-yl)oxy]ethoxy}-1H-indol-3-yl)propyl]acetamide] | 0.02 | 13 nM | 105% | 2 nM | 97% | – | 0.08 | –
9 | COc1ccc2[nH]cc(CCNC(C)=O)c2c1 [Melatonin, melatonin] | – | – | – | – | – | – | – | contract the isolated urethra in a rat to increase the urethral pressure of the rat
10 | COc1cc2c([C@@H](C)CNC(C)=O)c[nH]c2cc1Cl [TIK-301] | – | – | – | – | – | – | – | contract the isolated urethra in a rat to increase the urethral pressure of the rat
11 | COc1ccc2cccc(CCNC(C)=O)c2c1 [agomelatine] | – | – | – | – | – | – | – | contract the isolated urethra in a rat to increase the urethral pressure of the rat
12 | CCC(=O)NC[C@@H]1C[C@H]1c1cccc2c1CCO2 [tasimelteon] | – | – | – | – | – | – | – | contract the isolated urethra in a rat to increase the urethral pressure of the rat

The next lines start with results.

Row | Kp at 0.25 h [1] | EC50 (human MT2 receptor) | Emax (human MT2 receptor) | EC50 (human MT1 receptor) | Emax (human MT1 receptor) | Kp uu at 0.25 h [2, 4] | Kp uu at 0.25 h [2, 5] | Structure (SMILES) | contraction of isolated urethra, increase of urethral pressure [3]
13 | 0.29 | 33 nM | 102% | 18 nM | 102% | 0.11 | – | CC(=O)NCCc1c[nH]c2ccc(OCCn3ccc(C(F)(F)F)n3)cc12 [Example 4, N-[2-(5-{2-[3-(trifluoromethyl)-1H-pyrazol-1-yl]ethoxy}-1H-indol-3-yl)ethyl]acetamide] | –
14 | 0.089 | 150 nM | 48% | 13 nM | 89% | 0.1 | – | COc1ccc(OCCOc2ccc3[nH]cc(CCNC(C)=O)c3c2)cn1 [Example 5, N-[2-(5-{2-[(6-methoxypyridin-3-yl)oxy]ethoxy}-1H-indol-3-yl)ethyl]acetamide] | –
15 | 0.03 | 22 nM | 125% | 18 nM | 90% | 0.14 | – | CC(=O)NCCc1c(C)[nH]c2ccc(OCCOc3ccn(C)n3)cc12 [Example 7, N-[2-(2-methyl-5-{2-[(1-methyl-1H-pyrazol-3-yl)oxy]ethoxy}-1H-indol-3-yl)ethyl]acetamide] | –
16 | 0.04 | 12 nM | 107% | 9.1 nM | 93% | 0.08 | – | CCC(=O)NCCc1c[nH]c2ccc(OCCOc3ccn(C)n3)cc12 [Example 8, N-[2-(5-{2-[(1-methyl-1H-pyrazol-3-yl)oxy]ethoxy}-1H-indol-3-yl)ethyl]propanamide] | –
17 | – | 2.4 nM | 99% | 0.71 nM | 107% | 0.05 | – | CC(=O)NCCc1c[nH]c2ccc(OCCOc3cccc(C)n3)cc12 [Example 11, N-[2-(5-{2-[(6-methylpyridin-2-yl)oxy]ethoxy}-1H-indol-3-yl)ethyl]acetamide] | –
18 | – | 12 nM | 110% | 8.4 nM | 106% | 0.04 | – | CCC(=O)NCCc1c(C)[nH]c2ccc(OCCn3ccc(C)n3)cc12 [Example 15, N-(2-{2-methyl-5-[2-(3-methyl-1H-pyrazol-1-yl)ethoxy]-1H-indol-3-yl}ethyl)propanamide] | –
